Laboratory results reported in patent US20250215002A1, “SOLID FORMS OF TYK2 INHIBITORS AND METHODS OF USE” (Takeda Pharmaceutical Company Limited, priority 2022, published 2025).
“Also recorded” adds a separate entry of the source.

Legend:
Type in all cases: physicochemical
[1] = Relative humidity stressing (~90% RH), solid form by XRPD; conditions: RT
Description: Select materials were transferred to a vial, which was then uncapped and placed inside ajar containing a saturated aqueous barium chloride solution for ˜90% RH in the headspace (See, Nyqvist, H. E., Saturated Salt Solutions for Maintaining Specified Relative Humidities, Int. J. Pharm. Technol. Prod. Manuf 1983, 4, 47-48, which is incorporated by reference in its entirety). Jars were stored at the stated temperatures.
XRPD patterns were collected with a PANalytical X'Pert PRO MPD or a PANalytical Empyrean diffractometer using an incident beam of Cu radiation produced using a long, fine-focus source. An elliptically graded multilayer mirror was used to focus Cu Kα X-rays through the specimen and onto the detector. Prior to the analysis, a silicon specimen (NIST SRM 640e) was analyzed to verify the observed position of the Si 111 peak is consistent with the NIST-certified position. A specimen of the sample was sandwiched between 3-μm-thick films and analyzed in transmission geometry. A beam-stop, short antiscatter extension, and antiscatter knife edge were used to minimize the background generated by air. Soller slits for the incident and diffracted beams were used to minimize broadening and asymmetry from axial divergence. Diffraction patterns were collected using a scanning position-sensitive detector (X'Celerator) located 240 mm from the specimen and Data Collector software v. […]

[2] = Stable form screen slurries, resulting solid form by XRPD
Description: Early in the study, slurries were set up for the stable form screen at RT (Table 5, infra). In these experiments, solids of the as-received mixture of Form A+minor Material B were combined with given solvent systems at a solid loading that allowed for undissolved solids to remain, and the mixtures were stirred at ambient conditions. […] Two slurries were selected for isolation at that time to confirm the solid form and chemical composition, while the remaining slurries were covered with foil as a precaution. The slurry in THF, which was observed as a green suspension (darker than many of the other slurries), caused conversion to a new crystalline form, designated as Form C.
Additional slurries were set up at elevated temperatures (˜60° C. and ˜80° C.) and sub-ambient temperatures (2 to 8° C.) as well. […]
XRPD patterns were collected with a PANalytical X'Pert PRO MPD or a PANalytical Empyrean diffractometer using an incident beam of Cu radiation produced using a long, fine-focus source. […] Prior to the analysis, a silicon specimen (NIST SRM 640e) was analyzed to verify the observed position of the Si 111 peak is consistent with the NIST-certified position. A specimen of the sample was sandwiched between 3-μm-thick films and analyzed in transmission geometry. […]

[3] = Heating/desolvation experiments (TGA), recovered solids by XRPD
Procedure: TG analysis was performed using a Mettler-Toledo TGA/DSC3+ analyzer. Temperature calibration was performed using calcium oxalate, indium, tin, and zinc. The sample was placed in an aluminum pan. The pan was hermetically sealed, the lid pierced, then inserted into the TG furnace. A weighed aluminum pan configured as the sample pan was placed on the reference platform. The furnace was heated under nitrogen. Samples were analyzed from 25° C. to 350° C. at 10° C./min. The TGA/DSC3+ instrument was also used for select heating/desolvation experiments, in which solids were heated as described to a given temperature, then recovered and analyzed by XRPD.

[4] = Dynamic vapor sorption (DVS) moisture sorption/desorption; conditions: for Hygroscopicity (description): DVS 5-95% RH
Procedure: Moisture sorption/desorption data were collected on a Surface Measurement System DVS Intrinsic instrument. The samples were not dried prior to analysis. Sorption and desorption data were collected over a range from 5% to 95% RH in 10% RH increments under a nitrogen purge. The equilibrium criteria used for the analyses were 0.001 dm/dt weight change in 5 minutes with a minimum step time of 30 minutes and maximum equilibration time of 180 minutes with a 3-minute data logging interval. Data were not corrected for the initial moisture content of the samples.

[5] = Slurries of Form C at high water activity, resulting form by XRPD; conditions: 1 d
Procedure: In addition to the slurries starting with Form A, two slurries of Form C were set up at high water activity conditions to study possible conversion to a hydrate (Table 9, supra). THF/water 50:50 (aw ˜1) and neat water (aw 1) were used.
Suspensions were prepared by adding enough solids to a given solvent at the stated conditions so that undissolved solids were present. The mixture was then agitated (typically by stirring or oscillation) in a sealed vial at a given temperature for an extended period of time. The solids were isolated as described above.

| SMILES | XRPD Result after RH stress ([1]; 6 d) | Critical water activity (aw) between Form A and Form C ([2]; RT, hydrate Form A versus anhydrous Form C) | XRPD Result after heating ([3]; heat to 150° C. (TGA)) | Hygroscopicity (description) [4] | DVS weight gain 5-95% RH ([4]; sorption 5-95% RH) | XRPD Result after RH stress ([1]; 11 d) | Thermodynamic stability of the form (description) ([2]; between 2° C. and 80° C.) | XRPD Result after heating ([3]; heat to 270° C., cool to 40° C., heat to 200° C. (TGA)) | XRPD Result after slurry ([5]; slurry in THF/water 50:50 (aw ~1)) | XRPD Result after slurry ([5]; slurry in water (aw 1)) | DVS weight change at 5% RH ([4]; 5% RH) | post-DVS XRPD (solid form after DVS) ([4]; after sorption/desorption cycle 5-95-5% RH) | DVS weight loss 95-5% RH ([4]; desorption 95-5% RH) | DVS weight gain 5-95% RH, equivalent moles of water ([4]; sorption 5-95% RH) |
| --- | --- | --- | --- | --- | --- | --- | --- | --- | --- | --- | --- | --- | --- | --- |
| CNc1cc(Nc2cccn(-c3ccccn3)c2=O)nc2c(C(=O)N[C@@H]3CC[C@H]3OC)cnn12 [Form A] | still consisting of Form A | 0.69-0.82 | Full conversion to Form C; also recorded: converted to Form C upon | significant hygroscopicity | 4.58% | – | – | – | – | – | – | – | – | – |
| CNc1cc(Nc2cccn(-c3ccccn3)c2=O)nc2c(C(=O)N[C@@H]3CC[C@H]3OC)cnn12 [Form C] | – | – | – | limited hygroscopicity | 1.75% | consistent with Form C; also recorded: did not readily convert to a hydrate | likely thermodynamically stable anhydrous/non-solvated form | Material D | Full conversion to Form A | no form conversion | 0.00% weight change at 5% RH | consistent with Form C | 1.80% weight loss 95-5% RH | ~0.5 mol |
